This series is described as follows: log p. It is filed as physicochemical.

Where two headings read alike, the source gives them in different places.

As to `C=C(C)CN(CC)c1c(-c2c(F)cccc2F)c(Cl)nc2ncnn12` [Example 95], the log p stood at 3.42. `C=C(C)CN(C)c1c(-c2c(F)cc(C(F)(F)F)cc2Cl)c(Cl)nc2ncnn12` [Example 96] registered a log p of 4.05. For `C=C(C)CNc1c(-c2ccc(F)cc2F)c(Cl)nc2ncnn12` [Example 97], the log p worked out at 2.6. Take `C=C(C)CN(C)c1c(-c2ccc(F)cc2F)c(Cl)nc2ncnn12` [Example 98]: the log p worked out at 3.21. The molecule `C=C(C)CN(CC)c1c(-c2c(Cl)cccc2Cl)c(Cl)nc2ncnn12` [Example 99] yielded a log p of 3.92. `C=C(C)CN(CC)c1c(-c2cc(C(F)(F)F)ccc2Cl)c(Cl)nc2ncnn12` [Example 100] showed a log p of 4.12. `C=C(C)CN(CC)c1c(-c2cccc3c2OC(F)(F)O3)c(Cl)nc2ncnn12` [Example 101] displayed a log p of 3.9. On the same count and under the same terms, the value for `C=C(C)CN(CC)c1c(-c2cccc(C(F)(F)F)c2Cl)c(Cl)nc2ncnn12` [Example 102] was 4.12; that for `C=C(C)CNc1c(-c2c(F)c(F)c(F)c(F)c2F)c(Cl)nc2ncnn12` [Example 104] was 3.09. Molecule `C=C(C)CN(CC)c1c(-c2ccccc2Cl)c(Cl)nc2ncnn12` [Example 105] showed a log p of 3.69. `C=C(C)CN(CC)c1c(-c2ccccc2)c(Cl)nc2ncnn12` [Example 106] showed a log p of 3.44. For the molecule `CC(C)(C)CNc1c(-c2ccccc2)c(Cl)nc2ncnn12` [Example 109], the log p came to 3.17. For `Fc1c(F)c(F)c(-c2c(Cl)nc3ncnn3c2NCC(F)(F)F)c(F)c1F` [Example 113], the log p amounted to 3. On the same count and under the same terms, to `CC(C)CNc1c(-c2ccccc2Cl)c(Cl)nc2ncnn12` [Example 126] belongs 2.97; to `CC(C)CNc1c(-c2ccccc2)c(Cl)nc2ncnn12` [Example 127], 2.79; to `CC(C)Nc1c(-c2ccccc2Cl)c(Cl)nc2ncnn12` [Example 131], 2.65. Take `CC(C)Nc1c(-c2ccc(F)c(Cl)c2)c(Cl)nc2ncnn12` [Example 140]: the log p was determined as 2.9. On to `CC(C)Nc1c(-c2ccccc2F)c(Cl)nc2ncnn12` [Example 141], for which the log p is 2.42. `CC(C)Nc1c(-c2ccc(F)cc2Cl)c(Cl)nc2ncnn12` [Example 142] yielded a log p of 2.79. With `CC(C)Nc1c(-c2c(F)c(F)c(F)c(F)c2F)c(Cl)nc2ncnn12` [Example 144], the log p was found to be 3.05. The molecule `CC(C)Nc1c(-c2ccc(F)cc2F)c(Cl)nc2ncnn12` [Example 145] returned a log p of 2.56.

Take `CC(C)Nc1c(-c2ccccc2)c(Cl)nc2ncnn12` [Example 147]: the log p is 2.45. Regarding `CCCCNc1c(-c2ccc(F)cc2F)c(Cl)nc2ncnn12` [Example 149], the log p was determined as 2.9.

The molecule `CCCNc1c(-c2ccccc2F)c(Cl)nc2ncnn12` [Example 150] yielded a log p of 2.43. `CCCNc1c(-c2c(F)c(F)c(F)c(F)c2F)c(Cl)nc2ncnn12` [Example 152] displayed a log p of 3.05. Take `CC(C)(C)Nc1c(-c2c(F)cc(C(F)(F)F)cc2Cl)c(Cl)nc2ncnn12` [Example 153]: the log p came to 3.9. In turn, `CC(C)(C)Nc1c(-c2c(F)cc(F)cc2F)c(Cl)nc2ncnn12` [Example 154] came in with a log p of 3.05.

Turning to `CN(C)c1c(-c2c(F)c(F)c(F)c(F)c2F)c(Cl)nc2ncnn12` [Example 155], the log p is listed as 2.74.

On to `CC1CCN(c2c(-c3c(F)cc(F)cc3F)c(Cl)nc3ncnn23)CC1` [Example 156, 5-Chloro-7-(4-methylpiperidin-1-yl)-6-(2,4,6-trifluorophenyl)[1,2,4]triazolo[1,5-a]-pyrimidine], for which the log p (read-out: log p) is 3.6. In the case of `Fc1cccc(F)c1-c1c(Cl)nc2ncnn2c1N1CCCO1` [Example 157], the log p is listed as 2.07. For the molecule `CC1CCN(c2c(-c3c(F)cccc3Cl)c(Cl)nc3ncnn23)CC1` [Example 158], the log p turned out to be 3.68. As for `Fc1cc(F)c(-c2c(Cl)nc3ncnn3c2N2CCC(C(F)(F)F)CC2)c(F)c1` [Example 160], the log p was 3.41. Same read-out and setting: to `Cc1cc(C)c(-c2c(Cl)nc3ncnn3c2N2CCOCC2)c(C)c1` [Example 161] belongs 2.8; to `CC1CN(c2c(-c3ccccc3F)c(Cl)nc3ncnn23)CC(C)O1` (stereo not shown) [Example 162], 2.67; to `Fc1ccccc1-c1c(Cl)nc2ncnn2c1N1CCCC1` [Example 163], 2.49.

Molecule `Fc1ccccc1-c1c(Cl)nc2ncnn2c1N1CCCCC1` [Example 164] returned a log p of 3.01. In turn, `Fc1ccccc1-c1c(Cl)nc2ncnn2c1N1CCSCC1` [Example 165] came in with a log p of 2.68.

In turn, `Fc1ccccc1-c1c(Cl)nc2ncnn2c1N1CCC(C(F)(F)F)CC1` [Example 166] registered a log p of 3.23. Still for that read-out and setting: the value for `Fc1cc(F)c(-c2c(Cl)nc3ncnn3c2N2CCCCC2)c(F)c1` [Example 173] was 3.53. In turn, `CN1CCN(c2c(-c3c(F)cc(C(F)(F)F)cc3Cl)c(Cl)nc3ncnn23)CC1` [Example 174] yielded a log p of 1.68. Regarding `Fc1cc(C(F)(F)F)cc(Cl)c1-c1c(Cl)nc2ncnn2c1N1CCOCC1` [Example 175], the log p came to 3.07. Same read-out and setting: the value for `Fc1cc(C(F)(F)F)cc(Cl)c1-c1c(Cl)nc2ncnn2c1N1CCCC1` [Example 176] was 3.5; that for `Fc1cc(C(F)(F)F)cc(Cl)c1-c1c(Cl)nc2ncnn2c1N1CCCCC1` [Example 177] was 4.03.

In the case of `Fc1cc(C(F)(F)F)cc(Cl)c1-c1c(Cl)nc2ncnn2c1N1CCC(C(F)(F)F)CC1` [Example 178], the log p is recorded as 4.18. Still for that read-out and setting: to `Fc1cc(C(F)(F)F)cc(Cl)c1-c1c(Cl)nc2ncnn2c1N1CC=CCC1` [Example 179] belongs 3.85. On the same count and under the same terms, the value for `CC1CC(C)CN(c2c(-c3c(F)cc(C(F)(F)F)cc3Cl)c(Cl)nc3ncnn23)C1` (stereo not shown) [Example 180] was 4.79; that for `CC1CCCN(c2c(-c3c(F)cc(C(F)(F)F)cc3Cl)c(Cl)nc3ncnn23)C1` (stereo not shown) [Example 181] was 4.46; that for `CC1CCN(c2c(-c3c(F)cc(C(F)(F)F)cc3Cl)c(Cl)nc3ncnn23)CC1` [Example 182] was 4.37.

In turn, `CC1=CCCN(c2c(-c3c(F)cc(C(F)(F)F)cc3Cl)c(Cl)nc3ncnn23)C1` [Example 183] came in with a log p of 4.23.

Turning to `CC1CCCN1c1c(-c2ccc(F)cc2F)c(Cl)nc2ncnn12` (stereo not shown) [Example 184], the log p is listed as 2.99. For the molecule `Fc1ccc(-c2c(Cl)nc3ncnn3c2N2CCCC2)c(F)c1` [Example 185], the log p was 2.62. Still for that read-out and setting: to `Fc1ccc(-c2c(Cl)nc3ncnn3c2N2CC=CCC2)c(F)c1` [Example 186] belongs 2.94. The molecule `CC1CC(C)CN(c2c(-c3ccc(F)cc3F)c(Cl)nc3ncnn23)C1` (stereo not shown) [Example 187] had a log p of 3.9. The molecule `CC1CCCCN1c1c(-c2ccc(F)cc2F)c(Cl)nc2ncnn12` (stereo not shown) [Example 188] had a log p of 3.44. Still for that read-out and setting: the value for `CC1CCCN(c2c(-c3ccc(F)cc3F)c(Cl)nc3ncnn23)C1` (stereo not shown) [Example 189] was 3.52; that for `CC1CCN(c2c(-c3ccc(F)cc3F)c(Cl)nc3ncnn23)CC1` [Example 190] was 3.54. The molecule `CC1(C)CCN(c2c(-c3ccc(F)cc3F)c(Cl)nc3ncnn23)CC1` [Example 191] gave a log p of 3.8.

On to `CC1=CCCN(c2c(-c3ccc(F)cc3F)c(Cl)nc3ncnn23)C1` [Example 192], for which the log p was 3.3. Turning to `Fc1ccc(-c2c(Cl)nc3ncnn3c2N2CCC(C(F)(F)F)CC2)c(F)c1` [Example 193], the log p came to 3.34. In turn, `Fc1ccc(-c2c(Cl)nc3ncnn3c2N2CCCCC2)c(F)c1` [Example 194] returned a log p of 3.14.

`Fc1ccc(-c2c(Cl)nc3ncnn3c2N2CCOCC2)c(F)c1` [Example 195] gave a log p of 2.19.

The molecule `Fc1ccc(-c2c(Cl)nc3ncnn3c2N2CCSCC2)c(F)c1` [Example 196] came in with a log p of 2.8.

For the molecule `CN1CCN(c2c(-c3c(F)c(F)c(F)c(F)c3F)c(Cl)nc3ncnn23)CC1` [Example 197], the log p is recorded as 1.43. For `Fc1c(F)c(F)c(-c2c(Cl)nc3ncnn3c2N2CCCCC2)c(F)c1F` [Example 198], the log p is 3.61.

`Fc1c(F)c(F)c(-c2c(Cl)nc3ncnn3c2N2CCOCC2)c(F)c1F` [Example 199] gave a log p of 2.69.

`Fc1ccccc1-c1c(Cl)nc2ncnn2c1N1CCOCC1` [Example 200] returned a log p of 2.09. Regarding `Fc1cc(F)c(-c2c(Cl)nc3ncnn3c2N2CCCCO2)c(F)c1` [Example 201], the log p is given as 2.92. The same measure, in the same setting: to `Fc1cccc(F)c1-c1c(Cl)nc2ncnn2c1N1CCCCC1C(F)(F)F` (stereo not shown) [Example 202] belongs 3.11; to `Fc1cc(F)c(-c2c(Cl)nc3ncnn3c2N2CCCO2)c(F)c1` [Example 203], 2.4. As to `Fc1ccc(-c2c(Cl)nc3ncnn3c2N2CCCCO2)c(Cl)c1` [Example 204], the log p stood at 3.11. The same measure, in the same setting: to `Fc1ccc(-c2c(Cl)nc3ncnn3c2N2CCCCO2)c(F)c1` [Example 205] belongs 2.84; to `CC1CN(c2c(-c3c(F)c(F)c(F)c(F)c3F)c(Cl)nc3ncnn23)CC(C)O1` (stereo not shown) [Example 206], 3.33; to `Fc1c(F)c(F)c(-c2c(Cl)nc3ncnn3c2N2CCCC2)c(F)c1F` [Example 207], 3.11. The same measure, in the same setting: to `Fc1c(F)c(F)c(-c2c(Cl)nc3ncnn3c2N2CCCCC2C(F)(F)F)c(F)c1F` (stereo not shown) [Example 208] belongs 4.09; to `Fc1c(F)c(F)c(-c2c(Cl)nc3ncnn3c2N2CCSCC2)c(F)c1F` [Example 209], 3.29; to `Fc1ccc(-c2c(Cl)nc3ncnn3c2N2CCCC2C(F)(F)F)c(F)c1` (stereo not shown) [Example 210], 3.2.

Turning to `Fc1cccc(Cl)c1-c1c(Cl)nc2ncnn2c1N1CC=CCO1` [Example 243], the log p worked out at 2.78.

`Fc1cccc(Cl)c1-c1c(Cl)nc2ncnn2c1N1CCCC=N1` [Example 244]: the log p turned out to be 2.58.

`Clc1ccc(-c2c(Cl)nc3ncnn3c2N2CCCCO2)c(Cl)c1` [Example 245] had a log p of 3.51.

Values taken from patent publication US20090149455A1, “Use of Triazolopyrimidines for Controlling Plant Diseases on Legumes” (Bayer CropScience AG, priority 2005, published 2009).
